Data taken from patent publication US20220265629A1, “TREATMENT OF SYSTOLIC DYSFUNCTION AND HEART FAILURE WITH REDUCED EJECTION FRACTION WITH THE COMPOUND (R)-4-(1-((3-(DIFLUOROMETHYL)-1-METHYL-1H-PYRAZOL-4-YL)SULFONYL)-1-FLUOROETHYL)-N-(ISOXAZOL-3-YL)PIPERIDINE-1-CARBOXAMIDE” (MyoKardia, Inc., priority 2019, published 2022).
Where two headings read alike, the source gives them in different places.

Experiment: Food effect cross-over study, 200 mg (25 mg tablets), healthy volunteers: plasma pharmacokinetics
Assay type: in vivo, human
Settings: for Plasma concentration, Geometric Mean / Plasma concentration, Mean / Plasma concentration, Median: Predose; for concentration at 1 h / concentration at 2 h / concentration at 3 h / concentration at 4 h / concentration at 5 h / concentration at 6 h / concentration at 9 h / concentration at 12 h / concentration at 18 h / concentration at 24 h / concentration at 36 h: human, plasma, oral; for concentration at 1 h: 1 hour postdose; for concentration at 2 h: 2 hours postdose; for concentration at 3 h: 3 hours postdose; for concentration at 4 h: 4 hours postdose; for concentration at 5 h: 5 hours postdose; for concentration at 6 h: 6 hours postdose; for concentration at 9 h: 9 hours postdose; for concentration at 12 h: 12 hours postdose; for concentration at 18 h: 18 hours postdose; for concentration at 24 h: 24 hours postdose; for concentration at 36 h: 36 hours postdose
Excerpt: This example describes a clinical study for establishing, in healthy volunteers, the effect of a high fat, high caloric meal on the PK profile of Compound I, as compared to administration of the drug in the fasted state. The study also was intended to determine the safety and tolerability after a single oral dose of Compound I in the fed and fasted state in healthy volunteers. The measurements of PK, PD, and other clinical parameters were done as described in Example 1 above.
This study was an open-label, randomized, two-period cross-over study in healthy volunteers aged 18-55 years. Subjects were screened up to 28 days before the first treatment period. Subjects were admitted to the clinical site on Day −1 (the day before dosing) of Period 1. Approximately half of the subjects randomly received a single dose of Compound I on Day 1 of the first treatment period after the ingestion of a high fat, high caloric breakfast, and the remainder were closed in the fasted state. Any subject with a preclose resting HR≥95 beats per minute (bpm) was considered ineligible and was not treated. Any subjects with an acute gastrointestinal disorder which could impact drug/food absorption (e.g., vomiting, diarrhea) were rescheduled. Subjects were confined to the clinic until Day 4, and discharged after the 72-hour postclose PK and laboratory samples and vital signs were obtained. After a washout between dosing from 7 to 10 days (or, after consultation with the Investigator, up to 21 days after initial dosing if the subject was unable to attend within the 7 to 10-day window), the subject was admitted for Period 2. The sequence of fed/fasted versus fasted/fed periods was randomized. Subjects returned after the second treatment period for a safety follow-up visit on Day 7 (±1 day).
In both treatment periods, Compound I was administered with 240 mL of water. In the fasted state, the subjects fasted for 10 hours before and for 4 hours after the administration of Compound I. Water could have been ingested up to 1 hour before and after 1 hour post dosing. In the fed state, the subjects fasted for 10 hours before and for 4 hours after the ingestion of the meal, but could have ingested water up to 1 hour before and 1 hour after dosing. In the fed state, the subjects started ingesting the high fat, high caloric meal within 30 minutes prior to Compound I administration and finished the meal within 30 minutes. The meal contained approximately 800 to 1000 calories with about 50% of the calories from fat. The meal consisted of approximately 150 calories from protein, 250 calories from carbohydrate, and 500-600 calories from fat. An example of the meal was a breakfast consisting of two eggs fried in butter, two strips of bacon, two slices of buttered toast, 4 ounces of hash brown potatoes, and 8 ounces of whole milk.
Each subject received two oral doses of 200 mg of Compound I formulated as 25 mg tablets (8 tablets) in a randomized, cross-over fashion, once in the fasted state and the other time after the ingestion of a high fat, high caloric breakfast. There was a washout of between 7 and 21 days between the administrations of the two closes. The Compound I drug substance was a crystalline, free-base, synthetic molecule with a molecular weight of 435.4.
Plasma drug concentrations were measured as described in Example 1 above. Blood samples to measure Compound I plasma concentration were collected at various time points, including on Day 1 preclose (1 hour prior to dosing) and at 1 (±5 min), 2 (±5 min), 3 (±5 min), 4 (+10 min), 5 (+10 min), 6 (+10 min), 9 (+20 min), 12 (+20 min), 18 (+30 min), 24 (+30 min), 36 (+30 min), 48 (+30 min), and 72 (+30 min) hours postclose on both treatment periods.
To assess the effect of food on the PK of Compound I, the two one-sided t-test procedure was used to construct 90% CI around the geometric mean ratios (fed/fasted) of plasma AUCinf, AUClast, and Cmax. […]

[1] = Fasted, read-out: Plasma concentration, Geometric Mean
[2] = Fasted, read-out: Plasma concentration, Mean
[3] = Fasted, read-out: Plasma concentration, Median
[4] = Fed, read-out: Plasma concentration, Geometric Mean
[5] = Fed, read-out: Plasma concentration, Mean
[6] = Fed, read-out: Plasma concentration, Median

Cn1cc(S(=O)(=O)[C@@](C)(F)C2CCN(C(=O)Nc3ccon3)CC2)c(C(F)F)n1 [Compound I, (R)-4-(1-((3-(difluoromethyl)-1-methyl-1H-pyrazol-4-yl)sulfonyl)-1-fluoroethyl)-N-(isoxazol-3-yl)piperidine-1-carboxamide]
exposure (Cmax) higher in the fed state versus the fasted state: ~60%
AUCinf, Geometric Mean Ratio - Fed/Fasted (N = 11): 154.28 % of Reference
AUClast, Geometric Mean Ratio - Fed/Fasted (N = 11): 154.02 % of Reference
Cmax, Geometric Mean Ratio - Fed/Fasted (N = 11): 158.11 % of Reference
Plasma concentration, Geometric Mean (Fasted): 0.000 ng/mL
Plasma concentration, Mean (Fasted): 0.000 ng/mL
Plasma concentration, Median (Fasted): 0.000 ng/mL
Plasma concentration, Geometric Mean (Fed): 0.000 ng/mL
Plasma concentration, Mean (Fed): 0.092 ng/mL
Plasma concentration, Median (Fed): 0.000 ng/mL
Tmax, Median (range) (fasted state): 5 h
Tmax, Median (range) (fed state): 5.5 h
concentration at 1 h [1]: 1180 ng/mL
concentration at 1 h [2]: 1360 ng/mL
concentration at 1 h [3]: 1600 ng/mL
concentration at 1 h [4]: 916 ng/mL
concentration at 1 h [5]: 1320 ng/mL
concentration at 1 h [6]: 828 ng/mL
concentration at 2 h [1]: 1780 ng/mL
concentration at 2 h [2]: 1830 ng/mL
concentration at 2 h [3]: 1820 ng/mL
concentration at 2 h [4]: 1470 ng/mL
concentration at 2 h [5]: 1920 ng/mL
concentration at 2 h [6]: 1160 ng/mL
concentration at 3 h [1]: 2090 ng/mL
concentration at 3 h [2]: 2120 ng/mL
concentration at 3 h [3]: 2180 ng/mL
concentration at 3 h [4]: 2000 ng/mL
concentration at 3 h [5]: 2340 ng/mL
concentration at 3 h [6]: 2340 ng/mL
concentration at 4 h [1]: 2190 ng/mL
concentration at 4 h [2]: 2220 ng/mL
concentration at 4 h [3]: 2280 ng/mL
concentration at 4 h [4]: 2610 ng/mL
concentration at 4 h [5]: 2810 ng/mL
concentration at 4 h [6]: 3030 ng/mL
concentration at 5 h [1]: 2270 ng/mL
concentration at 5 h [2]: 2310 ng/mL
concentration at 5 h [3]: 2400 ng/mL
concentration at 5 h [4]: 3040 ng/mL
concentration at 5 h [5]: 3150 ng/mL
concentration at 5 h [6]: 3340 ng/mL
concentration at 6 h [1]: 2170 ng/mL
concentration at 6 h [2]: 2220 ng/mL
concentration at 6 h [3]: 2320 ng/mL
concentration at 6 h [4]: 3140 ng/mL
concentration at 6 h [5]: 3200 ng/mL
concentration at 6 h [6]: 3320 ng/mL
concentration at 9 h [1]: 1970 ng/mL
concentration at 9 h [2]: 2000 ng/mL
concentration at 9 h [3]: 2040 ng/mL
concentration at 9 h [4]: 3050 ng/mL
concentration at 9 h [5]: 3080 ng/mL
concentration at 9 h [6]: 3220 ng/mL
concentration at 12 h [1]: 1720 ng/mL
concentration at 12 h [2]: 1740 ng/mL
concentration at 12 h [3]: 1800 ng/mL
concentration at 12 h [4]: 2780 ng/mL
concentration at 12 h [5]: 2840 ng/mL
concentration at 12 h [6]: 2720 ng/mL
concentration at 18 h [1]: 1290 ng/mL
concentration at 18 h [2]: 1320 ng/mL
concentration at 18 h [3]: 1360 ng/mL
concentration at 18 h [4]: 2030 ng/mL
concentration at 18 h [5]: 2080 ng/mL
concentration at 18 h [6]: 2060 ng/mL
concentration at 24 h [1]: 1070 ng/mL
concentration at 24 h [2]: 1100 ng/mL
concentration at 24 h [3]: 1170 ng/mL
concentration at 24 h [4]: 1660 ng/mL
concentration at 24 h [5]: 1720 ng/mL
concentration at 24 h [6]: 1670 ng/mL
concentration at 36 h [1]: 546 ng/mL
concentration at 36 h [2]: 578 ng/mL
concentration at 36 h [3]: 596 ng/mL
